Experiments:
Assay type in all cases: cell-based, murine (C57BL/6 mice)
[1] = system: COX-2-derived PGE2 production in murine peritoneal macrophages; test: PGE2 production in LPS-stimulated macrophages, ELISA; conditions: Mus musculus, Peritoneal macrophage; pre-treated 12 h, LPS 1 μg/mL 18 h
Protocol: (§1) C57BL/6 mice were purchased from Orient Bio Co. (Sungnam, Kyung-Kido, Korea). TG-elicited peritoneal macrophages were harvested four days after intraperitoneal (i.p.) injection of 3 mL of TG [37]. Peritoneal lavage was performed using 8 mL of Hanks’ Balanced Salt Solution containing 10 U/mL heparin. The cells were distributed in Roswell Park Memorial Institute medium (RPMI) supplemented with 10% heat-inactivated FBS, in 6-well tissue culture plates (5 × 10^6 cells/mL). The level of PGE2, TNF-α or IL-1β present in each sample was determined using a commercially available kit from R & D Systems. The assay was performed according to the manufacturer’s instructions. Briefly, murine peritoneal macrophages were cultured in 24-well plates, pre-incubated for 12 h with different concentrations of compounds 1–3, and then stimulated for 18 h with LPS. The cell culture supernatants were then immediately collected after treatment and centrifuged at 13,000× g for 2 min to remove particulate matter. The medium was added to a 96-well plate pre-coated with affinity-purified PGE2-specific polyclonal antibodies or the medium was added to a 96-well plate pre-coated with affinity-purified polyclonal antibodies that were specific to mouse TNF-α or IL-1β. An enzyme-linked polyclonal antibody specific for PGE2, mouse TNF-α or IL-1β was added to the wells for 20 h, followed by a final wash to remove any unbound antibody-enzyme reagent. A substrate solution was added, and the intensity of the color produced, which was measured at 450 nm (the correction wavelength was set at 540 nm or 570 nm), was proportional to the amount of PGE2, TNF-α or IL-1β present.

[2] = system: Nrf2; test: Western blotting of Nrf2 nuclear translocation in macrophages; conditions: 40 μM; 15, 30, 60, 90 and 120 min
Protocol: Figure 7 The effects of penstyrylpyrone (1) on the nuclear translocation of Nrf2 (A) and anti-oxidant response element (ARE) activation (B) in murine peritoneal macrophages. Murine peritoneal macrophages were treated with 40 μM of penstyrylpyrone (1) for 15, 30, 60, 90 and 120 min. The nuclei were fractionated from the cytosol using PER-Mammalian Protein Extraction buffer. Nrf2 protein was detected using Western blotting analysis and representative blots of three independent experiments are shown. Quiescent cells transiently transfected with ARE-luciferase or control vector were incubated for 1 h with indicated concentrations of latifolin in the presence of 5% FBS. […]
(§2) Murine peritoneal macrophages were homogenized (1:20, w:v) in PER-Mammalian Protein Extraction buffer (Pierce Biotechnology, Rockford, IL, USA) containing freshly added protease inhibitor cocktail I (EMD Biosciences, San Diego, CA, USA) and 1 mM phenylmethylsulfonyl fluoride (PMSF). […] The protein concentration was determined using the bicinchoninic acid (BCA) protein assay kit.
(§3) Western blotting analysis was performed by lysing the cells in 20 mM Tris-HCl buffer (pH 7.4) containing a protease inhibitor mixture (0.1 mM PMSF, 5 mg/mL aprotinin, 5 mg/mL pepstatin A, and 1 mg/mL chymostatin). The protein concentration was determined using a Lowry protein assay kit (P5626; Sigma Chemical Co., St. Louis, MO, USA). […]

[3] = system: NF-κB (p65); test: Western blotting of NF-κB (p65) nuclear translocation in LPS-stimulated macrophages; conditions: pre-treatment 12 h, LPS 1 μg/mL 1 h
Protocol: Figure 5 The effects of penstyrylpyrone (1) on the protein expression level of IκB-α phosphorylation, degradation of IκB-α (A), NF-κB translocation (B), and NF-κB DNA binding activity (C) in murine peritoneal macrophages. Murine peritoneal macrophages were pre-treated for 12 h at the indicated concentrations of penstyrylpyrone (1), and stimulated for 1 h with LPS (1 μg/mL). Western blotting analysis of IκB-α and p-IκB-α in the cytoplasm and NF-κB in the nucleus (A, B) were performed. A commercially available NF-κB ELISA (Active Motif) was used to test the nuclear extracts and to determine the degree of NF-κB binding (C). […]
as §2, §3

[4] = system: murine peritoneal macrophages; test: Cell viability assay (MTT); set-up: dose or concentration left out as unconfirmed
[5] = system: NF-κB; test: DNA-binding activity of NF-κB in nuclear extracts (TransAM kit); conditions: pre-treatment 12 h, LPS 1 μg/mL 1 h
Protocol: Figure 5 The effects of penstyrylpyrone (1) on the protein expression level of IκB-α phosphorylation, degradation of IκB-α (A), NF-κB translocation (B), and NF-κB DNA binding activity (C) in murine peritoneal macrophages. Murine peritoneal macrophages were pre-treated for 12 h at the indicated concentrations of penstyrylpyrone (1), and stimulated for 1 h with LPS (1 μg/mL). Western blotting analysis of IκB-α and p-IκB-α in the cytoplasm and NF-κB in the nucleus (A, B) were performed. A commercially available NF-κB ELISA (Active Motif) was used to test the nuclear extracts and to determine the degree of NF-κB binding (C). The data represent the mean values ± SD of three experiments. *p < 0.05 compared with the group treated with LPS.
C57BL/6 mice were purchased from Orient Bio Co. (Sungnam, Kyung-Kido, Korea). […]
as §2
The DNA-binding activity of NF-κB in the nuclear extracts was measured using the TransAM kit (Active Motif, Carlsbad, CA, USA) according to the manufacturer’s instructions.

[6] = system: anti-oxidant response element (ARE); test: ARE-luciferase activation in macrophages; conditions: 1 h, 5% FBS
Protocol: Figure 7 The effects of penstyrylpyrone (1) on the nuclear translocation of Nrf2 (A) and anti-oxidant response element (ARE) activation (B) in murine peritoneal macrophages. Murine peritoneal macrophages were treated with 40 μM of penstyrylpyrone (1) for 15, 30, 60, 90 and 120 min. The nuclei were fractionated from the cytosol using PER-Mammalian Protein Extraction buffer. Nrf2 protein was detected using Western blotting analysis and representative blots of three independent experiments are shown. Quiescent cells transiently transfected with ARE-luciferase or control vector were incubated for 1 h with indicated concentrations of latifolin in the presence of 5% FBS. Cell lysates were assayed for luciferase activity and depicted by fold induction by normalizing the transfection efficiency and dividing the values of each experiment relative to the control. * p < 0.05 compared to the control group.

[7] = system: TNF-α production in murine peritoneal macrophages; test: TNF-α production in LPS-stimulated macrophages, ELISA; conditions: Mus musculus, Peritoneal macrophage; pre-treated 12 h, LPS 1 μg/mL 18 h
Protocol: as §1

SMILES: COc1cc(/C=C/c2ccccc2)oc(=O)c1C [Penstyrylpyrone (1), penstyrylpyrone]
- IC50 [1]: 9.35 µM
- Nrf2 levels in nuclear fractions [2]: gradual increase in Nrf2 levels
- Nuclear p65 protein levels (NF-κB translocation) [3]: gradually inhibited
- Cytotoxicity (cell viability) [4]: non-cytotoxic
- NF-κB DNA-binding activity [5]: impaired this activity in a concentration-dependent manner
- ARE activation (luciferase) [6]: gradually increased in a dose-dependent manner
- IC50 [7]: 18.3 µM
